According to EP0787717A1, “Substituted diaryl dicarboxylic acid diguanidines, process for their preparation, their use as inhibitors of the Na+/H+ exchange as well as medicament or diagnostic agent containing them” (HOECHST AKTIENGESELLSCHAFT, priority 1996, dated 1997):

The molecules below were run against T1, Na ^+/H ^+-Exchangers von Kaninchenerythrocyten (Oryctolagus cuniculus, UniProt P23791) (assay: Inhibition of the Na+/H+ exchanger of rabbit erythrocytes (amiloride-sensitive sodium influx, flame photometry)). Details: hyperosmolar salt-sucrose medium, pH 7,4, 37°C, read-out: IC50 Inhibition des Na ^+/H ^+ -Exchangers.
T1 construct: den Na ^+-Influx in die Erythrocyten via Na ^+/H ^+-Austausch flammenphotometrisch bestimmen zu können; from tissue; host or cells: Erythrocytes in whole blood from the ear arteries of cholesterol-fed New Zealand White rabbits
T1 sequence (P23791 whole entry): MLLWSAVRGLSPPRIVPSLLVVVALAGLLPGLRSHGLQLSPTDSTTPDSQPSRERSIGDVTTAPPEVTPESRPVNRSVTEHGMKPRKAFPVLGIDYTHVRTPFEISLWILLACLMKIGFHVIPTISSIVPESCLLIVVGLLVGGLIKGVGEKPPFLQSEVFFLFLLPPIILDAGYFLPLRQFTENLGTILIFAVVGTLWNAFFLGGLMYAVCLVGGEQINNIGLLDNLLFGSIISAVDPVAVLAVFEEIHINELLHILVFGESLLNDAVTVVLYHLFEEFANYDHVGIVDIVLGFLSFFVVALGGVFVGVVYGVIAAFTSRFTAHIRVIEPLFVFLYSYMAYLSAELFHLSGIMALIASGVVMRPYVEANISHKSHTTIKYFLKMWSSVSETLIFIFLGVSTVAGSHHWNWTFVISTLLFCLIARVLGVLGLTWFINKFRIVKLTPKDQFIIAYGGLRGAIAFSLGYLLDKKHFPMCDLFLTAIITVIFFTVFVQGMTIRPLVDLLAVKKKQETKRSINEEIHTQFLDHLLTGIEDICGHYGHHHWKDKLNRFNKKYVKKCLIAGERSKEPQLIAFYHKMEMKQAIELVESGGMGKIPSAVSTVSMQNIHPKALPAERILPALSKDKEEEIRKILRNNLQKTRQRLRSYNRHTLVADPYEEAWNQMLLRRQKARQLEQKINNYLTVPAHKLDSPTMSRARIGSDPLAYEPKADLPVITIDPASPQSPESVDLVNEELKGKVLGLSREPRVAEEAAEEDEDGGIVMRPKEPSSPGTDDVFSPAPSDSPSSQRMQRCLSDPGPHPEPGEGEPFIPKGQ
Type: cell-based, Kaninchen
Text: Inhibition des Na ^+/H ^+-Exchangers von Kaninchenerythrocyten Weiße Neuseeland-Kaninchen (Ivanovas) erhielten eine Standard-Diät mit […] für sechs Wochen, um den Na ^+ /H ^+-Austausch zu aktivieren und so den Na ^+-Influx in die Erythrocyten via Na ^+/H ^+-Austausch flammenphotometrisch bestimmen zu können. Das Blut wurde den Ohrarterien entnommen und durch 25 IE Kalium-Heparin ungerinnbar gemacht. Ein Teil jeder Probe wurde zur Doppelbestimmung des Hämatokrits durch Zentrifugieren benutzt. Aliquots von jeweils 100 µl dienten zur Messung des Na ^+-Ausgangsgehalts der Erythrocyten.
Um den Amilorid-sensitiven Natrium-Influx zu bestimmen, wurden 100 µl jeder Blutprobe in jeweils 5 ml eines hyperosmolaren Salz-Sucrose-Mediums (mmol/l: 140 NaCl, 3 KCl, 150 Sucrose, 0,1 Ouabain, 20 Tris-hydroxymethylaminomethan) bei pH 7,4 und 37°C inkubiert. Die Erythrocyten wurden danach dreimal mit eiskalter MgCl2-Ouabain-Lösung (mmol/l: 112 MgCl2, 0,1 Ouabain) gewaschen und in 2,0 ml destilliertem Wasser hämolysiert. Der intrazelluläre Natriumgehalt wurde flammenphotometrisch bestimmt.
Der Na ^+-Nettoinflux wurde aus der Differenz zwischen Natrium-Ausgangswerten und dem Natriumgehalt der Erythrocyten nach Inkubation errechnet. Der Amiloridhemmbare Natrium-Influx ergab sich aus der Differenz des Natriumgehalts der Erythrocyten nach Inkubation mit und ohne Amilorid 3 x 10^-4 mol/l. Auf diese Weise wurde auch bei den erfindungsgemäßen Verbindungen verfahren.
“4-(4-Guanidinocarbonyl)phenylsulfamoyl-benzoylguanidin [Beispiel 3]” gave an IC50 of 1.5 µM. Work on `NC(N)=NC(=O)c1ccc(-c2cccc(C(=O)N=C(N)N)c2)cc1` [Beispiel 1, 3-(4-Guanidinocarbonyl)phenyl-benzoylguanidin] yielded an IC50 of 1.5 µM. In the case of `NC(N)=NC(=O)c1ccc(-c2ccccc2C(=O)N=C(N)N)cc1` [Beispiel 2, 2-(4-Guanidinocarbonyl)phenyl-benzoylguanidin], the IC50 is reported as 5 µM. `NC(N)=NC(=O)c1ccc(-c2ccc(C(=O)N=C(N)N)cc2)cc1` [Beispiel 4, Biphenyl-4,4'-dicarbonsäure-diguanidid] was tested, and the IC50 was 2 µM. `NC(N)=NC(=O)c1ccc(S(=O)(=O)NC(=O)Nc2cccc(C(=O)N=C(N)N)c2)cc1` [Beispiel 5, 4[3-(Guanidinocarbonyl)phenylaminocarbonylaminosulfonyl]-benzoylguanidin] was tested, and the IC50 was 10 µM.
